Values after ≈ are worked out from the molar mass of the structure shown. Structures can show the parent of a compound that is named as a salt. Where two headings read alike, the source gives them in different places. Blank lines part the entries; values can stand above or below the compound they belong to.
What was measured:
[1] = Solubility test by UV-Vis spectroscopy of saturated solutions; format: physicochemical; conditions: solvent DMSO
[2] = as above; format: physicochemical; conditions: saturated solution; for solubility: thermodynamic from solid
Experimental: All UV-Vis measurements were carried out with an Agilent Cary 60 UV-Vis 2.00 between 800-200 nm. The absorbance was measured with a scan rate of 300.0 nm/min, a data interval of 0.50 nm and an UV-Vis Average Time of 0.10 s. For all measurements a cuvette with 10 mm light path was used. A calibration curve was plotted from several different concentrations and the solubility of the respective compound was determined by measuring the absorbance of a diluted saturated solution. As a blank curve a mixture of ultrapure water and ethanol in a ratio of 1:1 or 5:95 was recorded. For the calibration curve a 100 μM or a 10 μM solution of the compound in an ultrapure water:ethanol (1:1) or (5:95)-mixture was prepared and diluted to obtain at least 6 concentrations. […] The supernatant was taken using a syringe and filtered through a syringe filter (RC Membrane). The saturated solution was diluted with ultrapure water and ethanol to obtain an appropriate concentration in a water:ethanol (1:1) or (5:95)-mixture. The long wave absorbance maximum was used for determination of the solubility (mean values, determination in triplicate). […] By plotting the concentration of the solution against the absorbance values at the previously determined wavelength maximum a calibration curve was obtained (FIG. 1B).

[3] = target: T1, human FLT3-ITD (Homo sapiens, UniProt P36888); assay: Enzymatic kinase assay FLT3 (ITD), 10-dose IC50 mode (Reaction Biology); format: biochemical
T1 sequence (P36888 1-993): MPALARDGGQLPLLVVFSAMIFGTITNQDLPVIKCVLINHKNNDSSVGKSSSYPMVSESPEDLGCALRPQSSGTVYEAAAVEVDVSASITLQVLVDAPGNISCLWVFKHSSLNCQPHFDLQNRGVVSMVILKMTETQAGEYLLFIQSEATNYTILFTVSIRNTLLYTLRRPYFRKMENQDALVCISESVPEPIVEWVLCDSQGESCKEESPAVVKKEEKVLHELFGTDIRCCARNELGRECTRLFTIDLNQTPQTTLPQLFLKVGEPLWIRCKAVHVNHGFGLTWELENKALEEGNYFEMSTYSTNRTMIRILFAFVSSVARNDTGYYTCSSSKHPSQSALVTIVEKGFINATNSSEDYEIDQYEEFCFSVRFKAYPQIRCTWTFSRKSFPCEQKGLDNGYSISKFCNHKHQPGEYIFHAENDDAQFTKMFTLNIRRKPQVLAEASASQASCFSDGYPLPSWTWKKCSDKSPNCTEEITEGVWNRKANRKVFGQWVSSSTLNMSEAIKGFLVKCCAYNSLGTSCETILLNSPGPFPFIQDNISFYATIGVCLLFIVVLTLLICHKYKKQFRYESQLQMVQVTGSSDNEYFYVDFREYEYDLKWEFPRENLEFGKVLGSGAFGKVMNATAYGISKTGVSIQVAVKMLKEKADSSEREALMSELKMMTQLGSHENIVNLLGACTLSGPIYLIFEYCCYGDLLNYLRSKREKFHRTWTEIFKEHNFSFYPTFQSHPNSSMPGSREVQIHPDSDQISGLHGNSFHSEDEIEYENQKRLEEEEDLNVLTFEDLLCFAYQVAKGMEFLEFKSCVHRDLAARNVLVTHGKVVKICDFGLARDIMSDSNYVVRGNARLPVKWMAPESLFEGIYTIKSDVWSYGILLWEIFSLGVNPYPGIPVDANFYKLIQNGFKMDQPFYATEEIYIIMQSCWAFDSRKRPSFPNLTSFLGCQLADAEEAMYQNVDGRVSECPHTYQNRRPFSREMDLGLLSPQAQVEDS

[4] = system: subcutaneous MV4-11 CDX model; assay: In vivo efficacy study in subcutaneous MV4-11 CDX model in NOD/SCID mice; conditions: 50 mg/kg po daily 5 days
[5] = ethanol, organic solvent or mixture, ethanol, read-out: Solubility Ethanol
[6] = ultrapure water, water, ultrapure water, read-out: Solubility Water
[7] = 10 μM ATP; read-out: IC50 FLT3 (ITD)
[8] = ethanol, 2,2,2-trifluoroacetate
[9] = read-out: IC50 FLT3 (ITD); 10 μM ATP

Solubility DMSO [1]: Soluble | solubility [2, 5]: 2570 µg/mL (≈ 4610 µM) | solubility [2, 6]: 140 µg/mL (≈ 251 µM)
Compound: CC(C)(C)c1cc(NC(=O)Nc2ccc3oc(C(=O)c4cc5c(CN6CCOCC6)c(O)ccc5[nH]4)cc3c2)no1 [Compound 30b, 1-(5-(tert-Butyl)isoxazol-3-yl)-3-(2-(5-hydroxy-4-(morpholinomethyl)-1H-indole-2-carbonyl)benzofuran-5-yl)urea 2,2,2-trifluoroacetate]

IC50 [3, 7]: 2 nM
Compound: CC(C)(C)c1cc(NC(=O)Nc2ccc3oc(C(=O)c4cc5c(CN6CCOCC6)c(O)ccc5[nH]4)cc3c2)no1 [Compound 30c, 1-(5-(tert-Butyl)isoxazol-3-yl)-3-(2-(5-hydroxy-4-(morpholinomethyl)-1H-indole-2-carbonyl)benzofuran-5-yl)urea hydrochloride]

Solubility Ethanol [2, 8]: 1890 µg/mL (≈ 3400 µM)
Compound: CC(C)(C)c1cc(NC(=O)Nc2ccc3oc(C(=O)c4cc5c(CN6CCCCC6)c(O)ccc5[nH]4)cc3c2)no1 [Compound 31b, 1-(5-(tert-Butyl)isoxazol-3-yl)-3-(2-(5-hydroxy-4-(piperidin-1-ylmethyl)-1H-indole-2-carbonyl)benzofuran-5-yl)urea 2,2,2-trifluoroacetate]

Solubility DMSO [1]: Soluble | Solubility Ethanol ([2]; ethanol): 910 µg/mL (≈ 1680 µM) | solubility [2, 6]: < 100 µg/mL
Compound: CC(C)(C)c1cc(NC(=O)Nc2ccc3oc(C(=O)c4cc5c(CN6CCCC6)c(O)ccc5[nH]4)cc3c2)no1 [Compound 32a, 1-(5-(tert-Butyl)isoxazol-3-yl)-3-(2-(5-hydroxy-4-(pyrrolidin-1-ylmethyl)-1H-indole-2-carbonyl)benzofuran-5-yl)urea]

Solubility Ethanol [2, 8]: 2400 µg/mL (≈ 4430 µM)
Compound: CC(C)(C)c1cc(NC(=O)Nc2ccc3oc(C(=O)c4cc5c(CN6CCCC6)c(O)ccc5[nH]4)cc3c2)no1 [Compound 32b, 1-(5-(tert-Butyl)isoxazol-3-yl)-3-(2-(5-hydroxy-4-(pyrrolidin-1-ylmethyl)-1H-indole-2-carbonyl)benzofuran-5-yl)urea 2,2,2-trifluoroacetate]

Further lines, the compound ahead of its results:

Compound: CC(C)(C)c1cc(NC(=O)Nc2ccc3oc(C(=O)c4cc5c(CN6CCCCC6)c(O)ccc5[nH]4)cc3c2)no1 [Compound 31a, 1-(5-(tert-Butyl)isoxazol-3-yl)-3-(2-(5-hydroxy-4-(piperidin-1-ylmethyl)-1H-indole-2-carbonyl)benzofuran-5-yl)urea]
Solubility DMSO [1]: Soluble | solubility [2, 5]: 2200 µg/mL (≈ 3960 µM) | solubility [2, 6]: < 100 µg/mL

Compound: CN(C)Cc1c(O)ccc2[nH]c(C(=O)c3cc4cc(NC(=O)Nc5cc(C(C)(C)C)on5)ccc4o3)cc12 [Compound 34a, 1-(5-tert-Butylisoxazol-3-yl)-3-(2-(4-((dimethylamino)methyl)-5-hydroxy-1H-indole-2-carbonyl)benzofuran-5-yl)urea]
IC50 [3, 7]: 1.51 nM

Compound: CC(C)(C)c1cc(NC(=O)Nc2ccc3oc(C(=O)c4cc5c(CN6CCOCC6)c(OC(=O)N6CCC(N7CCCCC7)CC6)ccc5[nH]4)cc3c2)no1 [Compound 38a, 2-(5-(3-(5-(tert-Butyl)isoxazol-3-yl)ureido)benzofuran-2-carbonyl)-4-(morpholinomethyl)-1H-indol-5-yl[1,4′-bipiperidine]-1′-carboxylate]
solubility [2, 5]: 890 µg/mL (≈ 1180 µM) | solubility [2, 6]: < 100 µg/mL

Compound: CC(C)(C)c1cc(NC(=O)Nc2ccc3oc(C(=O)c4cc5c(CN6CCOCC6)c(OC(=O)N6CCC(N7CCCCC7)CC6)ccc5[nH]4)cc3c2)no1 [Compound 38c, 2-(5-(3-(5-(tert-Butyl)isoxazol-3-yl)ureido)benzofuran-2-carbonyl)-4-(morpholinomethyl)-1H-indol-5-yl [1,4′-bipiperidine]-1′-carboxylate Dihydrochloride]
IC50 ([3]; read-out: IC50 FLT3 (ITD); 10 μM ATP; Dihydrochloride): 1.51 nM

Compound: CC(C)(C)c1cc(NC(=O)Nc2ccc3oc(C(=O)c4cc5c(CN6CCCCC6)c(OC(=O)N6CCC(N7CCCCC7)CC6)ccc5[nH]4)cc3c2)no1 [Compound 39a, 2-(5-(3-(5-(tert-Butyl)isoxazol-3-yl)ureido)benzofuran-2-carbonyl)-4-(piperidin-1-ylmethyl)-1H-indol-5-yl [1,4′-bipiperidine]-1′-carboxylate]
IC50 [3, 9]: 1.14 nM | solubility [2, 5]: 1590 µg/mL (≈ 2120 µM) | solubility [2, 6]: < 100 µg/mL

Compound: CC(C)(C)c1cc(NC(=O)Nc2ccc3oc(C(=O)c4cc5c(CN6CCCC6)c(OC(=O)N6CCC(N7CCCCC7)CC6)ccc5[nH]4)cc3c2)no1 [Compound 40a, 2-(5-(3-(5-(tert-Butyl)isoxazol-3-yl)ureido)benzofuran-2-carbonyl)-4-(pyrrolidin-1-ylmethyl)-1H-indol-5-yl [1,4′-bipiperidine]-1′-carboxylate]
IC50 [3, 9]: 1.15 nM | solubility [2, 5]: 1240 µg/mL (≈ 1690 µM) | solubility [2, 6]: < 100 µg/mL

Compound: CN1CCN(Cc2c(OC(=O)N3CCC(N4CCCCC4)CC3)ccc3[nH]c(C(=O)c4cc5cc(NC(=O)Nc6cc(C(C)(C)C)on6)ccc5o4)cc23)CC1 [Compound 41c, 2-(5-(3-(5-(tert-Butyl)isoxazol-3-yl)ureido)benzofuran-2-carbonyl)-4-((4-methylpiperazin-1-yl)methyl)-1H-indol-5-yl [1,4′-bipiperidine]-1′-carboxylate Trihydrochloride]
IC50 ([3]; read-out: IC50 FLT3 (ITD); 10 μM ATP; Trihydrochloride): 0.5 nM

Compound: CN(C)Cc1c(OC(=O)N2CCC(N3CCCCC3)CC2)ccc2[nH]c(C(=O)c3cc4cc(NC(=O)Nc5cc(C(C)(C)C)on5)ccc4o3)cc12 [Compound 42a, 2-(5-(3-(5-(tert-Butyl)isoxazol-3-yl)ureido)benzofuran-2-carbonyl)-4-((dimethylamino)methyl)-1H-indol-5-yl [1,4′-bipiperidine]-1′-carboxylate]
IC50 [3, 9]: 1.23 nM

Compound: CC(C)(C)OC(=O)N1CCN(Cc2c(O)ccc3[nH]c(C(=O)c4cc5cc(NC(=O)Nc6cc(C(C)(C)C)on6)ccc5o4)cc23)CC1 [Compound 54a]
Solubility DMSO [1]: Soluble | solubility [2, 5]: 900 µg/mL (≈ 1370 µM) | solubility [2, 6]: < 100 µg/mL

Compound: CCN1CCN(Cc2c(O)ccc3[nH]c(C(=O)c4cc5cc(NC(=O)Nc6cc(C(C)(C)C)on6)ccc5o4)cc23)CC1 [Compound 69b]
Solubility DMSO [1]: Soluble | Solubility Ethanol ([2]; ethanol): 4410 µg/mL (≈ 7540 µM) | Solubility Water ([2]; ultrapure water): 100 µg/mL (≈ 171 µM)

Compound: CC(C)N1CCN(Cc2c(O)ccc3[nH]c(C(=O)c4cc5cc(NC(=O)Nc6cc(C(C)(C)C)on6)ccc5o4)cc23)CC1 [Compound 70b, 1-(5-(tert-Butyl)isoxazol-3-yl)-3-(2-(5-hydroxy-4-((4-isopropylpiperazin-1-yl)methyl)-1H-indole-2-carbonyl)benzofuran-5-yl)urea bis(2,2,2-trifluoroacetate)]
Solubility Ethanol ([2]; ethanol, bis(2,2,2-trifluoroacetate)): 1820 µg/mL (≈ 3040 µM) | Solubility Water ([2]; ultrapure water, bis(2,2,2-trifluoroacetate)): 370 µg/mL (≈ 618 µM)

Compound: CO[C@@H]1[C@H](N(C)C(=O)c2ccccc2)C[C@H]2O[C@]1(C)n1c3ccccc3c3c4c(c5c6ccccc6n2c5c31)C(=O)NC4 [Midostaurin, reference compound]
first death(s) (day of study) [4]: 520000 s | second death (day of study) [4]: 9 days | number of living subjects, day of study 5 ([4]; 5 mice): 5 | number of living subjects, day of study 6 ([4]; 5 mice): 4 | number of living subjects, day of study 8 ([4]; 5 mice): 4 | number of living subjects, day of study 13 ([4]; 5 mice): 3 | number of living subjects, day of study 26 ([4]; 5 mice): 3 | number of living subjects, day of study 36 ([4]; 5 mice): 0
